Experimental data: patent US8324272B2 (XenoPort, Inc., priority 2006, dated 2012)
“And” between values parts separate entries of the source, which are not always exact repeats. Identical values can stand only once. Blank lines part the entries; values can stand above or below the compound they belong to.

Tests used:
[1] = Hygroscopicity of crystalline hydrochloride (9) crystallized from various solvents; assay type: physicochemical
Protocol: Crystallization of (1R,2R)-1-methyl-2-(2-methylpropanoyloxy)propyl (2S)-2-amino-3-(3,4-dihydroxyphenyl)propanoate hydrochloride (9) was crystallized using the solvents listed in Table 1 on an 80 mg scale.

[2] = oral administration; cited from earlier work

- melting point: 181.2 to 186 °C
Compound: CC(C)C(=O)O[C@H](C)[C@@H](C)OC(=O)[C@@H](N)Cc1ccc(O)c(O)c1.CS(=O)(=O)O

- Hygroscopicity ([1]; crystallized from acetonitrile): None
- Hygroscopicity ([1]; crystallized from isopropanol-ethyl acetate): None
- Hygroscopicity ([1]; crystallized from isopropanol-methyl tert-butyl ether): None
- Hygroscopicity ([1]; crystallized from tetrahydrofuran-diisopropyl ether): None
- Hygroscopicity ([1]; crystallized from tetrahydrofuran-hexane): None
- Hygroscopicity ([1]; crystallized from tetrahydrofuran-methyl tert-butyl ether): None
- Hygroscopicity ([1]; crystallized from water-acetonitrile): None
- Hygroscopicity ([1]; crystallized from water-methyl tert-butyl ether): None
- melting point: 164.7 to 166.2 °C and 164.9 to 166.4 °C
Compound: CC(C)C(=O)O[C@H](C)[C@@H](C)OC(=O)[C@@H](N)Cc1ccc(O)c(O)c1.Cl [Compound 9, (1R,2R)-1-Methyl-2-(2-methylpropanoyloxy)propyl (2S)-2-Amino-3-(3,4-dihydroxyphenyl)propanoate Hydrochloride]

Compound: CC(C)(C)C(=O)Oc1ccc(C[C@H](N)C(=O)O)cc1O [NB-355]
- duration of circulating levodopa [2]: prolonged
- plasma concentrations of levodopa [2]: low

- melting point: 94.4 °C (dec.)
Compound: CS(=O)(=O)O.C[C@@H](OC(=O)c1ccccc1)[C@@H](C)OC(=O)[C@@H](N)Cc1ccc(O)c(O)c1 [Compound 11, (1R,2R)-1-Methyl-2-phenylcarbonyloxypropyl (2S)-2-Amino-3-(3,4-dihydroxyphenyl)propanoate Mesylate]
